# pIC50: −log10 of the molar value. Read-outs that look alike come from different tables or passages of the source.
# Experiments:
# CALU-6 (lung cancer) = experiment: Cytotoxicity assay, 2 h drug exposure at pH 6.8 or 7.4, crystal violet staining; format: cell-based, human; settings: then 72 h
# Procedure: (§1) The Pd-complexes were dissolved in acetone (1 mg/ml stock solution). Human cancer cell lines SK-MEL 25 (melanoma) and CALU-6 (lung cancer) were used for the determination of the cytotoxic activity of Pd-complexes. For comparison, the well known anti-tumor drugs cisplatin and corresponding platinum complexes were included. Cells were seeded at a density of 2×10^6 cells/96 well plate. After 24 h, tissue culture medium was removed and fresh medium supplemented with 10% fetal calf serum and 100 units/ml penicillin/streptomycin containing either 2.2 g/l (pH 7.4) or 0.85 g/l (pH 6.8) NaHCO3 was added. After 1 hour of equilibration in an atmosphere containing 5% CO2, drugs were added at various concentrations (50, 25, 12.5, 6.25, 3.1, 1.6, 0.8 μg/ml) in quadruplicate. Untreated cultures served as controls. Two hours later, the culture medium was replaced with 0.1 ml of fresh tissue culture medium (pH 7.4, 10% fetal calf serum). Culture plates were then incubated for 48 h (SK-MEL 25) or 72 h (Calu-6) at 37° C. Then, cells were fixed with 3% formaldehyde and stained with 1% crystalviolet. The number of viable cells is proportional to the amount of bound cristalviolet. Therefore, the relative cell number could be determined at an Antos 2001 ELISA reader (550 nm). Dose response curves were established from the OD data and the concentration at which the cell number was reduced to 50% of the control (IC50) was determined.
# SK-MEL 25 (melanoma) = experiment: as above; format: cell-based, human; settings: then 48 h
# Procedure: as §1
# [1] = CALU-6, pH 6.8, 2 h drug exposure, read-out: IC50-values, CALU-6, pH 6.8
# [2] = CALU-6, pH 7.4, 2 h drug exposure, read-out: IC50-values, CALU-6, pH 7.4
# [3] = SK-MEL 25, pH 6.8, 2 h drug exposure, read-out: IC50-values, SK-MEL 25, pH 6.8
# [4] = SK-MEL 25, pH 7.4, 2 h drug exposure, read-out: IC50-values, SK-MEL 25, pH 7.4
compound,measurement,setting,value
"CCOC(=S)[S-].CCOC(=S)[S-].[Pt+2] [Bis(O-ethyl-dithiocarbonato) platin, reference compound]",pIC50,CALU-6 (lung cancer); [1],4.92
same,pIC50,CALU-6 (lung cancer); [2],4.55
same,pIC50,SK-MEL 25 (melanoma); [3],4.68
same,pIC50,SK-MEL 25 (melanoma); [4],4.35
"CC(C)OC(=S)[S-].CC(C)OC(=S)[S-].[Pt+2] [Bis(O-isopropyl-dithiocarbonato)platin, reference compound]",pIC50,CALU-6 (lung cancer); [1],5.22
same,pIC50,CALU-6 (lung cancer); [2],5.00
same,pIC50,SK-MEL 25 (melanoma); [3],5.22
same,pIC50,SK-MEL 25 (melanoma); [4],4.92
"N.N.[Cl][Pt][Cl] [Cisplatin, reference compound]",pIC50,CALU-6 (lung cancer); [1],5.20
same,pIC50,CALU-6 (lung cancer); [2],5.20
same,pIC50,SK-MEL 25 (melanoma); [3],4.60
same,pIC50,SK-MEL 25 (melanoma); [4],4.60
"S=C([S-])OC1CCCCC1.S=C([S-])OC1CCCCC1.[Pd+2] [compound 1, Bis(O-cyclohexyl-dithiocarbonato)palladium(II)]",pIC50,CALU-6 (lung cancer); [1],5.70
same,pIC50,CALU-6 (lung cancer); [2],5.40
same,pIC50,SK-MEL 25 (melanoma); [3],5.22
same,pIC50,SK-MEL 25 (melanoma); [4],5.00
"CC(C)OC(=S)[S][Pd][S]C(=S)OC(C)C [compound 2, Bis(O-isopropyl-dithiocarbonato)palladium(II)]",pIC50,CALU-6 (lung cancer); [1],6.22
same,pIC50,CALU-6 (lung cancer); [2],5.80
same,pIC50,SK-MEL 25 (melanoma); [3],6.10
same,pIC50,SK-MEL 25 (melanoma); [4],5.89
"CCOC(=S)[S][Pd][S]C(=S)OCC [compound 3, Bis(O-ethyl-dithiocarbonato)palladium(II)]",pIC50,CALU-6 (lung cancer); [1],5.70
same,pIC50,CALU-6 (lung cancer); [2],5.10
same,pIC50,SK-MEL 25 (melanoma); [3],5.30
same,pIC50,SK-MEL 25 (melanoma); [4],4.85
"CCC(C)COC(=S)[S][Pd][S]C(=S)OCC(C)CC (stereo not shown) [compound 4, Bis(O-(2-methyl)-butyl-dithiocarbonato)palladium(II)]",pIC50,CALU-6 (lung cancer); [1],5.70
same,pIC50,CALU-6 (lung cancer); [2],5.22
same,pIC50,SK-MEL 25 (melanoma); [3],5.22
same,pIC50,SK-MEL 25 (melanoma); [4],5.05
"CCCCOC(=S)[S-].CCCCOC(=S)[S-].[Pd+2] [compound 5, Bis(O-butyl-dithiocarbonato)palladium(II)]",pIC50,CALU-6 (lung cancer); [1],6.00
same,pIC50,CALU-6 (lung cancer); [2],5.60
same,pIC50,SK-MEL 25 (melanoma); [3],6.00
same,pIC50,SK-MEL 25 (melanoma); [4],5.51
"CCCCCCOC(=S)[S-].CCCCCCOC(=S)[S-].[Pd+2] [compound 6, Bis(O-hexyl-dithiocarbonato)palladium(II)]",pIC50,CALU-6 (lung cancer); [1],5.51
same,pIC50,CALU-6 (lung cancer); [2],5.20
same,pIC50,SK-MEL 25 (melanoma); [3],5.00
same,pIC50,SK-MEL 25 (melanoma); [4],5.00
"COC(=S)[S-].COC(=S)[S-].[Pd+2] [compound 7, Bis(O-methyl-dithiocarbonato)palladium(II)]",pIC50,CALU-6 (lung cancer); [1],5.80
same,pIC50,CALU-6 (lung cancer); [2],5.35
same,pIC50,SK-MEL 25 (melanoma); [3],5.35
same,pIC50,SK-MEL 25 (melanoma); [4],5.21

# From patent US20060205809A1, “Pharmaceutical preparation containing palladium complex compounds and the uses thereof for treating cancer and autoimmune disease” (priority 2002, published 2006)
